Experiments:
Assay type in all cases: biochemical
UCHL1 = target: T1, UCHL1 (Homo sapiens, UniProt P09936); assay: Gel-based competition assay with probe 8RK59, UCHL1 band
T1 sequence (P09936 1-223): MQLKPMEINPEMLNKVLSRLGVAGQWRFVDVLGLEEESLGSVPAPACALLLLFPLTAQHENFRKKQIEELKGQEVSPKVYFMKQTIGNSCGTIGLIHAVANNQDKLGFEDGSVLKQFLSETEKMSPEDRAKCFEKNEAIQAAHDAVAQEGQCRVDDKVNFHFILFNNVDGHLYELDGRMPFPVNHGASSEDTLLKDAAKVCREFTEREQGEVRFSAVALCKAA
Method: (§1) To assess the inhibitory potency and selectivity of these compounds toward PARK7 and UCHL1, we performed a gel-based competition assay (Figure 3A).[36] A mixture of equal amounts of PARK7 and UCHL1 (1 μM) was treated with each of the synthesized compounds (2 μM) for 1 h, followed by incubation with fluorescent probe 8RK59 (2 μM) for 30 min. Samples were resolved by SDS-PAGE, and the gel was scanned for fluorescence. Inhibition of PARK7 or UCHL1 is reflected by the disappearance of their corresponding bands (Figure 3B). […] The inhibition potential of JYQ-88 against PARK7 was assessed in a similar assay where PARK7 was incubated with a serial dilution of JYQ-88 before treatment with probe 8RK59 (Figure 3C). A clear inhibition is visible at 0.5 μM, and full inhibition is achieved between 1 and 2 μM. […] The selectivity of JYQ-88 between UCHL1 and PARK7 was further confirmed in a direct competition assay between equal amounts of PARK7 and UCHL1 (Figure 3F). PARK7 inhibition was observed starting from 0.5 μM JYQ-88, whereas inhibition of UCHL1 was only detected at 20 μM. Since JYQ-88 and 8RK64 are enantiomers, we assumed that the interactions with PARK7 should be similar. To investigate how the chiral center influences the selectivity, we solved the crystal structure of the PARK7−JYQ-88 complex with 1.42 Å resolution (Figure 3G, Table S1, PDB 7PA3). The global positioning of the inhibitor in between the two α-helices was similar to that for 8RK64. […] This way, the thiazolo-pyridine part of JYQ-88 is bound in a similar manner as 8RK64 and the earlier observed interactions are largely the same. The formation of the isothiourea moiety, stabilized by the interaction with Glu18, and the interaction between the thiazole amine and the amide NH2 of the Asn76 side chain are still present. However, the interaction between the azidoacetyl carbonyl with the Leu128 backbone carbonyl can no longer be observed due to the rotation of the azidoacetyl moiety. The Lys132 residue also seems to have rotated (compared to Figure 2C).
(§2) The assay was performed in Tris buffer as described above.

PARK7 [1] = target: T2, PARK7 (Homo sapiens, UniProt Q99497); assay: Gel-based competition assay with probe 8RK59, PARK7 band; parameters: GST (N, cleaved yes); made in house; host or cells: E. coli BL21(DE3) Rosetta2
T2 sequence (Q99497 1-189): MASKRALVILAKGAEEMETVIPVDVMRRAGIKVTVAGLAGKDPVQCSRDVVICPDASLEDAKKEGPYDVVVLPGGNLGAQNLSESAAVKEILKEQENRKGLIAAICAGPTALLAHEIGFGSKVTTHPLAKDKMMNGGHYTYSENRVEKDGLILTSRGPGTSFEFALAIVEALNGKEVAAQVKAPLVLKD
Method: as §1, §2

PARK7 [2] = target: T2, PARK7; assay: Gel-based competition assay in HEK293T cell lysate with probe JYQ-92; parameters: GST (N, cleaved yes); made in house; host or cells: E. coli BL21(DE3) Rosetta2; conditions: inhibitor 1 h 37 °C, then JYQ-92 1 μM 30 min, Figure 4E
Description: We next assessed whether we could measure the inhibitory activity of an inhibitor against PARK7 in a cell lysate using JYQ-92 to label the remaining activity of PARK7. […] The disappearance of the labeling band is a measure for inhibition.

[3] = compound 2 μM, 1 h, PARK7 and UCHL1 1 μM each, then 8RK59 2 μM 30 min, Figure 3B
[4] = direct competition, equal amounts of PARK7 and UCHL1, Figure 3F

For `N#CN1CC[C@@H](C(=O)Nc2nc3c(s2)CN(C(=O)CN=[N+]=[N-])CC3)C1` [JYQ-88, (R)-N-(5-(2-Azidoacetyl)-4,5,6,7-tetrahydrothiazolo[5,4-c]pyridin-2-yl)-1-cyanopyrrolidine-3carboxamide], the “Inhibition of UCHL1 (disappearance of 8RK59-labeled band)” value (UCHL1; [3]) was “without inhibiting”, the “Concentration at which inhibition of UCHL1 was detected” value (UCHL1; [4]) was 20 µM and the “Concentration at which clear inhibition of PARK7 is visible” value (PARK7 [1]; PARK7 1 μM, serial dilution of inhibitor, then 8RK59, Figure 3C) was 0.5 µM. For the same compound, the “Inhibition of PARK7 (disappearance of 8RK59-labeled band)” value (PARK7 [1]; [3]) was “almost complete inhibition”, the “Concentration from which PARK7 inhibition was observed” value (PARK7 [1]; [4]) was 0.5 µM and the “Inhibitory potency toward PARK7 compared with 8RK64” value (PARK7 [1]; gel-based PARK7 inhibition assays, Figures 3C and S2) was “slightly more potent”. For the same compound, the “Inhibitor concentration at which the PARK7 labeling band intensity is already decreased” value (PARK7 [2]) was 0.1 µM and the “Inhibitor concentration from which the PARK7 labeling band has nearly disappeared” value (PARK7 [2]) was 1 µM.
